The target of assay [1] is SRSF protein kinase 3 (Homo sapiens) (UniProt Q9UPE1). Description: Selectivity interaction (Ambit KINOMEscan and KiNATiv profiling in Jurkat cells) EUB0000090b SRPK3. The class given is cell-based. The following applies: at 1 µM.
Assay [2] addresses Serine/threonine-protein kinase 10 (Homo sapiens) (UniProt O94804). Kind of assay: Selectivity interaction (ActivX KiNativ screen (ex vivo kinase selectivity in human PBMCs)) EUB0001619a STK10. The assay is classed as cell-based. The note with it: PBMC, at 1 µM.
In assay [3] the test system is T1, Receptor-type tyrosine-protein kinase FLT3 (Homo sapiens), P36888 [D835H].
T1 sequence (whole entry): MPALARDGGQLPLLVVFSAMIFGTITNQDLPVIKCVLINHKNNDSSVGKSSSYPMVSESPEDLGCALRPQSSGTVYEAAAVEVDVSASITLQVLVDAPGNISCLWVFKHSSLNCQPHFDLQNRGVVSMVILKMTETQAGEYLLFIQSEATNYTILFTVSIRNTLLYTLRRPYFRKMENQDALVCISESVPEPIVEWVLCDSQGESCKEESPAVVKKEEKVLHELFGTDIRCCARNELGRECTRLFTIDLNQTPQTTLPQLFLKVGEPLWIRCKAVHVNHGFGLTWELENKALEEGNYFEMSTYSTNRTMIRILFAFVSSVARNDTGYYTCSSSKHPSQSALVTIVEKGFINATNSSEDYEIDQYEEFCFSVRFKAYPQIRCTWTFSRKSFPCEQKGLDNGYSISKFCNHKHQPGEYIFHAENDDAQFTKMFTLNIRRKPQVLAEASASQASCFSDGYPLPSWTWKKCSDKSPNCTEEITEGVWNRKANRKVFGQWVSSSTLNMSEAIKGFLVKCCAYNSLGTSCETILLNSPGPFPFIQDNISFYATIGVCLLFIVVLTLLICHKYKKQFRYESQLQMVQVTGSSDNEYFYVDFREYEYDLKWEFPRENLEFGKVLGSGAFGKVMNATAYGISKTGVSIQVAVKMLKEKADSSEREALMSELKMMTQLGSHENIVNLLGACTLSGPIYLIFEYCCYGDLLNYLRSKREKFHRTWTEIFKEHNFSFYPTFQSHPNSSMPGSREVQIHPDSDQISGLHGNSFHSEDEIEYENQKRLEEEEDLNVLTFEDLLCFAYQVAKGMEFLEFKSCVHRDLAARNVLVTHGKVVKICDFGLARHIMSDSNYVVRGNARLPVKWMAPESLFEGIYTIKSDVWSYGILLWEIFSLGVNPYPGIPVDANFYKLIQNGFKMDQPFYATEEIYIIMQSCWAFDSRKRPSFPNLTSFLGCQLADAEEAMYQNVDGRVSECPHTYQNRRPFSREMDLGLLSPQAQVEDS
Description: (§1) Selectivity interaction (KinomeScan (DiscoverX)) EUB0000092b FLT3. The note with it: at 10 µM.

In assay [4] the test system is T2, Receptor-type tyrosine-protein kinase FLT3 (Homo sapiens), P36888 [D835Y].
T2 sequence (whole entry): T1 sequence (whole entry) with H835Y
The assay is described as §1. The note with it: at 10 µM.

Residue numbers refer to the chain shown, from its start.

Serine/threonine-protein kinase 10 (Homo sapiens), sequence (O94804 whole entry, looked up): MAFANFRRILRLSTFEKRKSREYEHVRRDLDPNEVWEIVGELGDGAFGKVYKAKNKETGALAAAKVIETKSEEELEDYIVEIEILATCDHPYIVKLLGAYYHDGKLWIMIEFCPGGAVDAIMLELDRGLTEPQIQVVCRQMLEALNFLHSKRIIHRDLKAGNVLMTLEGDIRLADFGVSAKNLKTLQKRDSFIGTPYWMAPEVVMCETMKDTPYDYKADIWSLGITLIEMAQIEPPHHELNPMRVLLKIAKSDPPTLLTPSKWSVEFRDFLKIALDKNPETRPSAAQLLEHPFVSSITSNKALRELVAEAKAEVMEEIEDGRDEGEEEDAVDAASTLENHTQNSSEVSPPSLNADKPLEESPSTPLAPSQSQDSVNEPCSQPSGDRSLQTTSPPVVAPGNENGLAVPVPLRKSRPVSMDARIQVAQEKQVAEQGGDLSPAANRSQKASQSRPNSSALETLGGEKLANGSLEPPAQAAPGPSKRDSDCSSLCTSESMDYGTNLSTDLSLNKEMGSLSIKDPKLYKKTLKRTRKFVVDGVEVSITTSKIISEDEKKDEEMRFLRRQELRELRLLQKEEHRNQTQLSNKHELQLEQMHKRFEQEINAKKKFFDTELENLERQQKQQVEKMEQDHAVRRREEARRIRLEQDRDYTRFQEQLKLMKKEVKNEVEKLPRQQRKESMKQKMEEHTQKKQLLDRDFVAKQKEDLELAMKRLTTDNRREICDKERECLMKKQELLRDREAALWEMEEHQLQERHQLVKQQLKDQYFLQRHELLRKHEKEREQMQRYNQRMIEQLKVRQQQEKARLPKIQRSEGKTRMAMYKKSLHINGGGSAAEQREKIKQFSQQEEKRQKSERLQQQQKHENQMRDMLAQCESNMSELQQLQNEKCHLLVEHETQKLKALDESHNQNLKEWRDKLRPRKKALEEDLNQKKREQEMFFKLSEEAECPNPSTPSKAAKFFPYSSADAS
SRSF protein kinase 3 (Homo sapiens), sequence (Q9UPE1 whole entry): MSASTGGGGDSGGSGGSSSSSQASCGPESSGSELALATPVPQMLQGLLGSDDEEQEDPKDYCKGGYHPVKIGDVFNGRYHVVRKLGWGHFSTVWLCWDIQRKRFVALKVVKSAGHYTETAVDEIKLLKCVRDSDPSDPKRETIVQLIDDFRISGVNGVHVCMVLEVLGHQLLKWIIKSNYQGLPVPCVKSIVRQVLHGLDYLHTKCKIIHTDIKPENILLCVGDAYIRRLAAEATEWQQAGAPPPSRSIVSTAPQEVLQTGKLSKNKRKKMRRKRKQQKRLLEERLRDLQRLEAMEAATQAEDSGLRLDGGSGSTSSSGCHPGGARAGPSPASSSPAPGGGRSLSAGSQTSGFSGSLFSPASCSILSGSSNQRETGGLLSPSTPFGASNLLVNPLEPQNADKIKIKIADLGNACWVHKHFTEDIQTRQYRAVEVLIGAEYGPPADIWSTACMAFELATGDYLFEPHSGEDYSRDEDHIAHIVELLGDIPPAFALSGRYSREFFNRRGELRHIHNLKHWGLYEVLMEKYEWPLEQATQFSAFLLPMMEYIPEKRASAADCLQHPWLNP

Take `CN(C)C/C=C/C(=O)Nc1ccc(C(=O)N2CCCC(Nc3ncc(Cl)c(-c4c[nH]c5ccccc45)n3)C2)cc1` (centres undefined): the % of control in assay [1] came out at 93%.
The compound `N#Cc1cccc(-c2c[nH]c3ncnc(N4CCOCC4)c23)c1` had a % of inhibition in assay [2] of 79%.
For `CCC(=O)N1CCN(c2ccc(-n3c(=O)ccc4cnc5ccc(-c6cnc7ccccc7c6)cc5c43)cc2C(F)(F)F)CC1`, the % of control was 18% in assay [3] and 16% in assay [4].
